Reference: patent US10800785B2, “Substituted pyrrolo[2,3-d]pyridazin-4-ones and pyrazolo[3,4-d]pyridazin-4-ones as protein kinase inhibitors” (Shanghai Fochon Pharmaceutical Co., Ltd., priority 2016, dated 2020)

Each compound was assayed on DOHH2 cells (assay: Cell proliferation assay (MTS) in DOHH2 cells, mechanism-based assay for BTK inhibition). Conditions: Homo sapiens, DOHH-2, 120 h incubation, 5000 cells/well.
Description: Cell Proliferation Assays
MTS testing kit was purchased from Promega. The DMEM, Fetal bovine serum and Penicillin-Streptomycin were purchased from Gibco. Dimethyl sulfoxide (DMSO) was purchased from Sigma.
To investigate whether a compound is able to inhibit the activity of BTK in cells, a mechanism-based assay using DOHH2 (DSMZ catalog#: ACC47) and Mino (ATCC® Number CRL-3000™) cells was developed. In this assay, inhibition of BTK was detected by the inhibition of DOHH2 and Mino cell proliferations. DOHH2 or Mino cells were cultured in culture flasks to 40-80% confluence in RPMI-1640 plus 10% fetal bovine serum. C ells were collected and plated onto 96-well plates at desired cell density (DOHH2: 5000 cells/well; Mino: 10000 cells/well). Plates were incubated overnight at 37° C., with 5% CO2 to adhere. Compounds were added to the plates, and the final compound concentrations were 10000, 3333, 1111, […], 41, 14, 4.6 and 1.5 nM. Plates were placed at 37° C., with 5% CO2 for 120 h (DOHH2) or 72 h (Mino). 20 μl MTS/100 μl medium mixture solution were added to each well and the plates were incubated for exactly 2 hours. The reaction was stopped by adding 25 μl 10% SDS per well.
Select compounds prepared as described above were assayed according to the biological procedures described herein.

Q: For C=CC(=O)N1CCC[C@@H](c2cn(-c3ccc(Oc4cccc(F)c4)cc3)c3c(N)n[nH]c(=O)c23)C1 [Example 30, (S)-3-(1-acryloylpiperidin-3-yl)-7-amino-1-(4-(3-fluorophenoxy)phenyl)-1,5-dihydro-4H-pyrrolo [2,3-d]pyridazin-4-one], which IC50 is on record?
A: 129 nM

Q: For CC#CC(=O)N1CCC(c2nn(-c3ccc(Oc4c(F)cccc4F)cc3)c3c(N)n[nH]c(=O)c23)C1 (centres unmarked) [Example 8, 7-amino-3-(1-(but-2-ynoyl)pyrrolidin-3-yl)-1-(4-(2,6-difluorophenoxy)phenyl)-1,5-dihydro-4H-pyrazolo[3,4-d]pyridazin-4-one], which IC50 is on record?
A: 304 nM

Q: For CC#CC(=O)N1CCC[C@@H](c2nn(-c3ccc(Oc4ccccc4F)cc3)c3c(N)n[nH]c(=O)c23)C1 [Example 77, (R)-7-amino-3-(1-(but-2-ynoyl)piperidin-3-yl)-1-(4-(2-fluorophenoxy)phenyl)-1,5-dihydro-4H-pyrazolo[3,4-d]pyridazin-4-one], which IC50 is on record?
A: 666 nM

Q: With C=CC(=O)N1CCC[C@H](c2cn(-c3ccc(Oc4cccc(F)c4F)cc3)c3c(N)n[nH]c(=O)c23)C1 [Example 38, (R)-3-(1-acryloylpiperidin-3-yl)-7-amino-1-(4-(2,3-difluorophenoxy)phenyl)-1,5-dihydro-4H-pyrrolo[2,3-d]pyridazin-4-one] as the compound, how does the IC50 read?
A: 175 nM

Q: Which IC50 does the source give for CC#CC(=O)N1CCC[C@H](c2cn(-c3ccc(Oc4c(F)cccc4F)cc3)c3c(N)n[nH]c(=O)c23)C1 [Example 88, (R)-7-amino-3-(1-(but-2-ynoyl)piperidin-3-yl)-1-(4-(2,6-difluorophenoxy)phenyl)-1,5-dihydro-4H-pyrrolo[2,3-d]pyridazin-4-one] here?
A: 432 nM

Q: Which IC50 does the source give for C=CC(=O)N1CC[C@H](c2nn(-c3ccc(Oc4ccccc4)cc3)c3c(N)n[nH]c(=O)c23)C1 [Example 14, (S)-3-(1-acryloylpyrrolidin-3-yl)-7-amino-1-(4-phenoxyphenyl)-1,5-dihydro-4H-pyrazolo[3,4-d]pyridazin-4-one] here?
A: 50 nM

Q: With CC#CC(=O)N1CCC[C@H](c2cn(-c3ccc(Oc4ccccc4F)cc3)c3c(N)n[nH]c(=O)c23)C1 [Example 80, (R)-7-amino-3-(1-(but-2-ynoyl)piperidin-3-yl)-1-(4-(2-fluorophenoxy)phenyl)-1,5-dihydro-4H-pyrrolo[2,3-d]pyridazin-4-one] as the compound, how does the IC50 read?
A: 450 nM

Q: With C=CC(=O)N1CCC[C@@H](c2cn(-c3ccc(Oc4ccc(F)cc4)cc3)c3c(N)n[nH]c(=O)c23)C1 [Example 31, (S)-3-(1-acryloylpiperidin-3-yl)-7-amino-1-(4-(4-fluorophenoxy)phenyl)-1,5-dihydro-4H-pyrrolo [2,3-d]pyridazin-4-one] as the compound, how does the IC50 read?
A: 167 nM

Q: Which IC50 does the source give for CC#CC(=O)N1CCC[C@@H](c2cn(-c3ccc(Oc4ccccc4)cc3)c3c(N)n[nH]c(=O)c23)C1 [Example 71, (S)-7-amino-3-(1-(but-2-ynoyl)piperidin-3-yl)-1-(4-phenoxyphenyl)-1,5-dihydro-4H-pyrrolo[2,3-d]pyridazin-4-one] here?
A: 228 nM

Q: For C=CC(=O)N1CCC[C@@H](c2cn(-c3ccc(Oc4ccccc4F)cc3)c3c(N)n[nH]c(=O)c23)C1 [Example 29, (S)-3-(1-acryloylpiperidin-3-yl)-7-amino-1-(4-(2-fluorophenoxy)phenyl)-1,5-dihydro-4H-pyrrolo [2,3-d]pyridazin-4-one], which IC50 is on record?
A: 46 nM

Q: With CC#CC(=O)N1CCC(c2cn(-c3ccc(Oc4ccccc4)cc3)c3c(N)n[nH]c(=O)c23)C1 (centres unmarked) [Example 2, 7-amino-3-(1-(but-2-ynoyl)pyrrolidin-3-yl)-1-(4-phenoxyphenyl)-1,5-dihydro-4H-pyrrolo[2,3-d]pyridazin-4-one] as the compound, how does the IC50 read?
A: 244 nM

Q: For C=CC(=O)N1CC[C@H](c2cn(-c3ccc(Oc4c(F)cccc4F)cc3)c3c(N)n[nH]c(=O)c23)C1 [Example 27, (R)-3-(1-acryloylpyrrolidin-3-yl)-7-amino-1-(4-(2,6-difluorophenoxy)phenyl)-1,5-dihydro-4H-pyrrolo[2,3-d]pyridazin-4-one], which IC50 is on record?
A: 47 nM

Q: Which IC50 does the source give for C=CC(=O)N1CCC[C@H](c2nn(-c3ccc(Oc4ccccc4)cc3)c3c(N)n[nH]c(=O)c23)C1 [Example 16, (S)-3-(1-acryloylpiperidin-3-yl)-7-amino-1-(4-phenoxyphenyl)-1,5-dihydro-4H-pyrazolo[3,4-d]pyridazin-4-one] here?
A: 37 nM

Q: For C=CC(=O)N1CCC[C@@H](c2nn(-c3ccc(Oc4ccccc4F)cc3)c3c(N)n[nH]c(=O)c23)C1 [Example 53, (R)-3-(1-acryloylpiperidin-3-yl)-7-amino-1-(4-(2-fluorophenoxy)phenyl)-1,5-dihydro-4H-pyrazolo[3,4-d]pyridazin-4-one], which IC50 is on record?
A: 196 nM

Q: C=CC(=O)N1CC[C@@H](c2nn(-c3ccc(Oc4ccccc4)cc3)c3c(N)n[nH]c(=O)c23)C1 [Example 13, (R)-3-(1-acryloylpyrrolidin-3-yl)-7-amino-1-(4-phenoxyphenyl)-1,5-dihydro-4H-pyrazolo[3,4-d]pyridazin-4-one] was tested. Which IC50 did it give?
A: 107 nM

Q: C=CC(=O)N1CCC[C@H](c2cn(-c3ccc(Oc4cccc(F)c4)cc3)c3c(N)n[nH]c(=O)c23)C1 [Example 36, (R)-3-(1-acryloylpiperidin-3-yl)-7-amino-1-(4-(3-fluorophenoxy)phenyl)-1,5-dihydro-4H-pyrrolo [2,3-d]pyridazin-4-one] was tested. Which IC50 did it give?
A: 585 nM

Q: Which IC50 does the source give for CN(C)C/C=C/C(=O)N1CC[C@@H](c2cn(-c3ccc(Oc4ccccc4)cc3)c3c(N)n[nH]c(=O)c23)C1 [Example 93, (S,E)-7-amino-3-(1-(4-(dimethylamino)but-2-enoyl)pyrrolidin-3-yl)-1-(4-phenoxyphenyl)-1,5-dihydro-4H-pyrrolo[2,3-d]pyridazin-4-one] here?
A: 239 nM

Q: C=CC(=O)N1CCC[C@H](c2cn(-c3ccc(Oc4cc(F)cc(F)c4)cc3)c3c(N)n[nH]c(=O)c23)C1 [Example 40, (R)-3-(1-acryloylpiperidin-3-yl)-7-amino-1-(4-(3,5-difluorophenoxy)phenyl)-1,5-dihydro-4H-pyrrolo[2,3-d]pyridazin-4-one] was tested. Which IC50 did it give?
A: 375 nM

Q: With CC#CC(=O)N1CCC[C@@H](c2cn(-c3ccc(Oc4c(F)cccc4F)cc3)c3c(N)n[nH]c(=O)c23)C1 [Example 87, (S)-7-amino-3-(1-(but-2-ynoyl)piperidin-3-yl)-1-(4-(2,6-difluorophenoxy)phenyl)-1,5-dihydro-4H-pyrrolo[2,3-d]pyridazin-4-one] as the compound, how does the IC50 read?
A: 265 nM

Q: Which IC50 does the source give for CC#CC(=O)N1CC[C@@H](c2cn(-c3ccc(Oc4ccccc4F)cc3)c3c(N)n[nH]c(=O)c23)C1 [Example 75, (S)-7-amino-3-(1-(but-2-ynoyl)pyrrolidin-3-yl)-1-(4-(2-fluorophenoxy)phenyl)-1,5-dihydro-4H-pyrrolo[2,3-d]pyridazin-4-one] here?
A: 383 nM

Q: C=CC(=O)N1CCC[C@H](c2cn(-c3ccc(Oc4ccccc4)cc3)c3c(N)n[nH]c(=O)c23)C1 [Example 12, (R)-3-(1-acryloylpiperidin-3-yl)-7-amino-1-(4-phenoxyphenyl)-1,5-dihydro-4H-pyrrolo[2,3-d]pyridazin-4-one] was tested. Which IC50 did it give?
A: 74 nM

Q: Which IC50 does the source give for C=CC(=O)N1CCC[C@H](c2nn(-c3ccc(Oc4c(F)cccc4F)cc3)c3c(N)n[nH]c(=O)c23)C1 [Example 63, (S)-3-(1-acryloylpiperidin-3-yl)-7-amino-1-(4-(2,6-difluorophenoxy)phenyl)-1,5-dihydro-4H-pyrazolo[3,4-d]pyridazin-4-one] here?
A: 189 nM

Q: For C=CC(=O)N1CC[C@@H](c2cn(-c3ccc(Oc4c(F)cccc4F)cc3)c3c(N)n[nH]c(=O)c23)C1 [Example 21], which IC50 is on record?
A: 100 nM

Q: C=CC(=O)N1CCC[C@@H](c2cn(-c3ccc(Oc4c(F)cccc4F)cc3)c3c(N)n[nH]c(=O)c23)C1 [Example 33, (S)-3-(1-acryloylpiperidin-3-yl)-7-amino-1-(4-(2,6-difluorophenoxy)phenyl)-1,5-dihydro-4H-pyrrolo[2,3-d]pyridazin-4-one] was tested. Which IC50 did it give?
A: 221 nM

Q: Which IC50 does the source give for COC/C=C/C(=O)N1CC[C@@H](c2cn(-c3ccc(Oc4ccccc4F)cc3)c3c(N)n[nH]c(=O)c23)C1 [Example 92, (S,E)-amino-1-(4-(2-fluorophenoxy)phenyl)-3-(1-(4-methoxybut-2-enoyl)pyrrolidin-3-yl)-1,5-dihydro-4H-pyrrolo[2,3-d]pyridazin-4-one] here?
A: 649 nM

Q: With C=CC(=O)N1CCC(c2nn(-c3ccc(Oc4ccccc4)cc3)c3c(N)n[nH]c(=O)c23)C1 (centres unmarked) [Example 5, 3-(1-acryloylpyrrolidin-3-yl)-7-amino-1-(4-phenoxyphenyl)-1,5-dihydro-4H-pyrazolo[3,4-d]pyridazin-4-one] as the compound, how does the IC50 read?
A: 25 nM

Q: How did the IC50 turn out when CC#CC(=O)N1CC[C@H](c2cn(-c3ccc(Oc4ccccc4F)cc3)c3c(N)n[nH]c(=O)c23)C1 [Example 76, (R)-7-amino-3-(1-(but-2-ynoyl)pyrrolidin-3-yl)-1-(4-(2-fluorophenoxy)phenyl)-1,5-dihydro-4H-pyrrolo[2,3-d]pyridazin-4-one] was run?
A: 124 nM

Q: With C=CC(=O)N1CCC[C@@H](c2nn(-c3ccc(Oc4ccccc4)cc3)c3c(N)n[nH]c(=O)c23)C1 [Example 15, (R)-3-(1-acryloylpiperidin-3-yl)-7-amino-1-(4-phenoxyphenyl)-1,5-dihydro-4H-pyrazolo[3,4-d]pyridazin-4-one] as the compound, how does the IC50 read?
A: 40 nM

Q: Which IC50 does the source give for C=CC(=O)N1CCC(c2cn(-c3ccc(Oc4ccccc4F)cc3)c3c(N)n[nH]c(=O)c23)CC1 [Example 113, 3-(1-acryloylpiperidin-4-yl)-7-amino-1-(4-(2-fluorophenoxy)phenyl)-1,5-dihydro-4H-pyrrolo[2,3-d]pyridazin-4-one] here?
A: 161 nM
